Test results taken from patent publication US10647737B2, “Sulfated-glycolipids as adjuvants for vaccines” (National Research Council of Canada, priority 2014, dated 2020).
“And” between values parts separate entries of the source, which are not always exact repeats. Equal values may be shown once.

What was measured:
[1] = Archaeosome formation by hydration of dried lipid; type: physicochemical; conditions: lipid hydrated in PBS with antigen
Description: (§1) In one method, archaeosomes were formed by hydrating 20-30 mg dried lipid at 40° C. in 2 ml PBS buffer (10 mM sodium phosphate, 160 mM NaCl, pH 7.1) with the protein antigen OVA dissolved at 10 mg/ml. Vesicle size was reduced to about 100-150 nm diameter by brief sonication in a sonic bath (Fisher Scientific), and the portion of OVA antigen not entrapped was removed by centrifugation from 7 ml PBS followed by 2 washes (200,000×g max for 30 min). Vesicle pellets were resuspended in 2-2.5 ml PBS and filter sterilized through 0.45 μm Millipore filters. Sterile conditions and pyrogen-free water was used throughout.
In another method, lipids dissolved in t-butanol/water received antigen dissolved in an equal volume of water. The sample was then lyophilized to a powder and rehydrated in PBS buffer. Size was reduced, antigen not entrapped was removed, and filtration conducted as above.

[2] = Antigen loading of archaeosomes (SDS PAGE / SDS Lowry); type: physicochemical; conditions: OVA antigen entrapped in archaeosomes
Description: as §1
In another method, lipids dissolved in t-butanol/water received antigen dissolved in an equal volume of water. The sample was then lyophilized to a powder and rehydrated in PBS buffer. […]
Quantification of antigen loading was conducted by separating protein(s) from lipids using SDS polyacrylamide gel electrophoresis as described (Sprott, G. D., Patel, G. B., and Krishnan, L. 2003. Methods Enzymol, 373:155-172). Loading of synthetic archaeosomes with antigens was also determined using SDS Lowry with standard curves prepared for the respective antigen. […] Average diameters based on Intensity and Zeta potentials were measured using a Malvern Nano Zetasizer with a He/Ne laser (Spectra Research Corp., Ontario, Canada).

[3] = Average diameter of archaeosomes (Malvern Nano Zetasizer); type: physicochemical
Description: as §1
Quantification of antigen loading was conducted by separating protein(s) from lipids using SDS polyacrylamide gel electrophoresis as described (Sprott, G. D., Patel, G. B., and Krishnan, L. 2003. Methods Enzymol, 373:155-172). Loading of synthetic archaeosomes with antigens was also determined using SDS Lowry with standard curves prepared for the respective antigen. Loading was based on μg protein/mg salt corrected dry weight of lipid. Average diameters based on Intensity and Zeta potentials were measured using a Malvern Nano Zetasizer with a He/Ne laser (Spectra Research Corp., Ontario, Canada).

[4] = system: CD8^+ T cell response; assay: Elispot of IFN-γ-secreting splenic cells of mice immunized with OVA-archaeosomes; type: in vivo; conditions: OVA-loaded archaeosomes s.c. at 0 and 3 weeks; 6 weeks post first injection; FIG. 2
Description: (§2) C57BL6 female mice ([…]) were immunized subcutaneously with 0.1 ml vaccines containing the equivalent of 20 μg OVA, often entrapped in archaeosomes of various compositions, A booster consisting of the same vaccine and route was given most often on week 3. In experiments addressing ability of archaeosomes to evoke immune response to a cancer self-antigen, TRP or Gp100 antigen in archaeosomes was administered at a dose of 15 μg antigen per injection and booster given on week 3.5 and week 8.5. In some experiments an additional third injection was given (˜95 days after first dose). […]
(§3) As a measure of CD4^+ T cell response, antibody raised to the antigen in the vaccine and present in the sera of mice (5-6 mice/group), was quantified by Elisa according to a previous description (Krishnan, L., Dicaire, C. J., Patel, G. B., and Sprott, G. D. 2000. Infect, Immun. 68:54-63). The CD8^+ T cell response was quantified by sacrificing 2 mice/group and pooling their splenic cells. […]
In a first example, adjuvant activity of the natural sulfated glycolipid purified from Haloferax volcanii (6′-HSO3-D-Manp-α-1,2-D-Glcp-α-1,1-archaeol) was compared to a synthetic 6′-S-lactosylarchaeol, not found in nature. […] CD8^+ T cell responses measured by Elispot splenic cell assays. […]

[5] = system: anti OVA antibody (IgG); assay: Anti-OVA antibody titre in sera of immunized mice (Elisa); type: in vivo; conditions: OVA-archaeosomes, immunized day 0 and 21; FIG. 13
Description: C57BL6 female mice ([…]) were immunized subcutaneously with 0.1 ml vaccines containing the equivalent of 20 μg OVA, often entrapped in archaeosomes of various compositions, A booster consisting of the same vaccine and route was given most often on week 3. In experiments addressing ability of archaeosomes to evoke immune response to a cancer self-antigen, TRP or Gp100 antigen in archaeosomes was administered at a dose of 15 μg antigen per injection and booster given on week 3.5 and week 8.5. In some experiments an additional third injection was given (˜95 days after first dose). All protocols and SOPs were approved by the NRC Animal Care Committee and conducted within the guidelines of the Canadian Council on Animal Care.
As a measure of CD4^+ T cell response, antibody raised to the antigen in the vaccine and present in the sera of mice (5-6 mice/group), was quantified by Elisa according to a previous description (Krishnan, L., Dicaire, C. J., Patel, G. B., and Sprott, G. D. 2000. Infect, Immun. 68:54-63). The CD8^+ T cell response was quantified by sacrificing 2 mice/group and pooling their splenic cells. These were assayed in triplicate for antigen-specific responses by Elispot and CTL methods (Krishnan, L., Sad, S., Patel, G. B., and Sprott, G. D. 2003. Cancer Res. 63:2526-2534).

[6] = system: EL-4+TRP target cells; assay: CD8+ T cell response (ELISPOT, CTL) to cancer self-antigen TRP / Gp100 delivered in archaeosomes; type: in vivo, mice; conditions: TRP-liposomes; 15.5 weeks; FIG. 12
Description: as §2, §3
Peptides HLA.A2/H-2K^b TRP-2180-188 (SVYDFFVWL), CTL epitope from tyrosinase related protein-2 and Gp10025-35 (KVPRNQDWL) from human melanoma antigen Gp100 were synthesized. […] Quantification was done using a calibration curve based on known amounts of each of the respective peptides. […]

SMILES: CC(C)CCCC(C)CCCC(C)CCCC(C)CCOCC(CO[C@@H]1O[C@H](CO[C@@H]2O[C@H](CO[C@@H]3O[C@H](CO)[C@@H](O)[C@H](O)[C@H]3O)[C@@H](O)[C@H](O)[C@H]2O)[C@@H](O)[C@H](O)[C@H]1O)OCCC(C)CCCC(C)CCCC(C)CCCC(C)C (stereo partly drawn) [Glc3A, β-Glcp-(1,6)-β-Glcp-(1,6)-β-D-Glcp-(1,1)-archaeol]
- archaeosome vesicle formation / hydrating ability [1]: did not form

SMILES: CC(C)CCC[C@@H](C)CCC[C@@H](C)CCC[C@@H](C)CCOC[C@@H](CO[C@@H]1O[C@H](CO)[C@@H](O[C@@H]2O[C@H](CO)[C@H](O)[C@H](O)[C@H]2O)[C@H](O)[C@H]1O)OCC[C@H](C)CCC[C@H](C)CCC[C@H](C)CCCC(C)C [LA, lactosylarchaeol]
- archaeosome vesicle formation / hydrating ability [1]: did not hydrate well
- archaeosome vesicle formation / hydrating ability ([1]; listed as lactosylarchaeol): did not form

SMILES: CC(C)CCCC(C)CCCC(C)CCCC(C)CCOCC(CO[C@@H]1OC(CO)[C@@H](O[C@@H]2OC(COS(=O)(=O)[O+]=[Na])[C@H](O)[C@H](O)C2O)[C@H](O)C1O)OCCC(C)CCCC(C)CCCC(C)CCCC(C)C (stereo partly drawn) [SLA, (2R)-2,3-Bis[(3R,7R,11R)-3,7,11,15-tetramethylhexadecyloxy]propan-1-yl 4-O-(6-O-sulfo-β-D-galactopyranosyl)-β-D-glucopyranoside]
- Loading (μg antigen/mg archaeosome) [2]: 35.0 μg antigen/mg archaeosome and 22.0 μg antigen/mg archaeosome
- Average Diameter (nm) 12 weeks ([3]; 12 weeks storage): 176 nm
- Average Diameter (nm) 20 weeks ([3]; 20 weeks storage): 168 nm
- Average Diameter (nm) At first injection ([3]; at first injection): 172 nm and 168 nm
- archaeosome vesicle formation / hydrating ability [1]: excellent hydrating ability
- CD8+ T cell response, frequency of IFN-γ-secreting splenic cells (Elispot) [4]: highest response
- antibody response to OVA in serum [5]: strong antibody response
- adjuvant activity and CD8+ T cell response, archaeol from H. salinarum versus H. volcanii [6]: equally effective

SMILES: CC(C)CCCC(C)CCCC(C)CCCC(C)CCOCC(CO[C@@H]1O[C@H](CO)[C@@H](O[C@@H]2O[C@H](COS(=O)(=O)O)[C@H](OS(=O)(=O)O)[C@H](O)[C@H]2O)[C@H](O)[C@H]1O)OCCC(C)CCCC(C)CCCC(C)CCCC(C)C (stereo partly drawn) [di-sulfated LA, 4′-6′-disulfate-β-D-Galp-(1,4)-β-D-Glcp-(1,1)-archaeol]
- antibody response to OVA in serum [5]: strong antibody response

SMILES: CC(C)CCCC(C)CCCC(C)CCCC(C)CCOCC(CO[C@@H]1O[C@H](CO)[C@@H](O[C@@H]2O[C@H](CO[C@@H]3O[C@H](COS(=O)(=O)O)[C@@H](O)[C@H](O)[C@H]3O)[C@H](O)[C@H](O)[C@H]2O)[C@H](O)[C@H]1O)OCCC(C)CCCC(C)CCCC(C)CCCC(C)C (stereo partly drawn) [sulfated-trisaccharide archaeol, 6′-sulfated β-D-Glcp-(1,6)-β-D-Galp-(1,4)-β-D-Glcp-(1,1)-archaeol]
- antibody response to OVA in serum [5]: strong antibody response
